Patent publication US20030007964A1, “Method for treating rheumatoid arthritis with composition containing histone” (SAMYANG GENEX CORPORATION, priority 1998, published 2003)

Columns and labels:
[1] = system: collagen induced arthritis; assay: Treatment effect on collagen induced arthritis in mice, histone H2A and its active fragment (Example 7); type: in vivo
Description: (§1) Five-week old DBA/1J female mice were imported from Charles River Japan and allowed to adapt in an animal room for two weeks before using them in the experiments at the age of 7 weeks (20-25 g).
(§2) Isolated and quantified type II collagen of chicken (Sigma Chemical Co., St. Louis, Mo., U.S.A.) was solubilized in 0.1 N acetic acid at a concentration of 2 mg/ml. The solution was mixed with an equal amount of a complete Freund's adjuvant at 4° C. to form a suspension. One hundred microliters of this mixture was injected […] around the origin of the tail vein and further inoculated at 3 and 6 weeks after the first injection (D. E. Trentham et. al., Autoimmunity to Type II collagen: An Experimental Model of Arthritis, J. Exp. Med. 146; 857-868 (1977)). Arthritis was induced from the 4th week after the first injection.
(§3) Clinical incidence of arthritis % (C.I.A) and arthritis index were examined. C.I.A. was expressed as the percentage of mice that have arthritic symptoms among the total mice. The degree of inflammation expressed as the arthritis index was categorized from 0 to 3 by 2 researchers every week as below. Pictures of the feet of some mice were taken 6 weeks after the collagen administration.
(§4) 1: One or two toes were swollen with suffusion or had minimal swelling
(§5) 2: Definite suffusion or local swelling in many toes
(§6) 3: Observation of severe edema and swelling up to the knee and restricted use of the feet.
(§7) The arthritis index was calculated for 4 feet (2 hind feet and 2 fore feet) giving the maximum value of 12. An index of 6-8 was considered severe since collagen induced arthritis invades in general mainly the hind feet (Korea J. Immunol. 18, 437, 1996; J. Immunol. 151, 6546,1993).
As a test group to examine the treatment effect, 5 mice for histone H2A and 7mice for histone H2A active fragment were used. 1 mg/kg body weight of histone H2A or histone H2A active fragment was administered into the mice via intraperitoneal injection 2 times every week from the 6th week (after arthritis induction) up to the 10th week. Histone H2A or histone H2A active fragment was diluted at a concentration of 5 mg/ml in PBS. As a comparison group, 1 mg/kg body weight of dexamethasone, a currently available rheumatoid arthritis drug, was administered into 7 mice via an intraperitoneal injection 2 times every week from the 6th week (after arthritis induction) up to the 10th week. As a control group, […] of PBS was administered into 7 mice every week from the third week up to 10th week after the first collagen injection.

[2] = system: collagen induced arthritis; assay: Preventive effect against collagen induced arthritis in mice (Example 3); type: in vivo, DBA/1J female mice; conditions: preventive regimen
Description: as §1, §2, §3, §4, §5, §6, §7
As a test group to examine the preventive effect, 1 mg/kg body weight of histone H1 was administered into 10 mice via intraperitoneal injection 2 times every week from the third week (before arthritis induction) up to 10th week after the first injection. Histone H1 was diluted at a concentration of 5 mg/ml in PBS. As a comparison group, 1 mg/kg body weight of dexamethasone, a currently available rheumatoid arthritis drug, was administered into 10 mice via intraperitoneal injection 2 times every week from the third week (before arthritis induction) up to 10th week after the first injection. As a control group, 300 μl of PBS was administered into 20 mice 2 times every week from the third week up to 10th week after the first collagen injection.

[3] = system: collagen induced arthritis; assay: Treatment effect on collagen induced arthritis in mice, histone H1 (Example 4); type: in vivo, DBA/1J female mice; parameters: key to arthritis index: sum of 0–3 per-foot scores over 4 feet, max 12
Description: as §1, §2, §3, §4, §5, §6, §7
As a test group to examine the treatment effect, 1 mg/kg body weight of histone H1 was administered into 10 mice via intraperitoneal injection 2 times every week from the 6th week (after arthritis induction) up to the 10th week. Histone H1 was diluted at a concentration of 5 mg/ml in PBS. As a comparison group, 1 mg/kg body weight of dexamethasone, a currently available rheumatoid arthritis drug, was administered into 10 mice via an intraperitoneal injection 2 times every week from the 6th week (after arthritis induction) up to the 10th week. Identical control group was used as in EXAMPLE 1.

[4] = system: collagen induced arthritis; assay: Pathological observation of leg joints by H-E staining; type: in vivo, mice; conditions: treatment regimen; 10 weeks after antigen inoculation
Source text: Mice were sacrificed by blood evacuation from the heart. The legs were cut immediately after the sacrifice and fixed in formalin. After the decalcification, legs were stained by hematoxylin-Eosin.

[5] = system: anti-collagen antibody (Type II collagen); assay: Serum anti-collagen antibody level by ELISA; type: in vivo, mice; conditions: serum at 10th week
Description: At the 10th week the serum was isolated from the blood obtained through a heart puncture. The serum was kept at −80° C. and thawed immediately before the experiment to measure the anti-collagen antibody level by performing an ELISA (D. E. Tretham & R. A. Dynesius-Trentham, J. Immunol. 130; 2689-2692 (1983)). Type II collagen (25 μg/ml) in 0.1 M PBS was placed in each well of a 96-well polystyrene microplate (Nunc, Denmark) and was incubated at 4° C. for 8 hours. After the incubation, the wells were washed several times with a PBS-0.05% Tween 20 solution. To prevent non-specific immune reactions, PBS-0.5% ovalbumin was added in each well and incubated for an hour at room temperature and subsequently washed again with the PBS-0.05% Tween 20 solution. The serum, diluted 500 times with a buffer solution was added in each well and reacted for 2 hours at room temperature and further washed with the PBS-0.05% Tween 20 solution. After reacting each well with alkaline phosphatase conjugated goat anti-mouse IgA and IgM for 2 hours and adding 1 mg/ml of p-nitrophenyl phosphate, the absorbance at 450 nm was measured. The anti-collagen antibody level was measured twice for each sample and averaged.
The anti-collagen antibody level was measured to estimate the immune reaction as in EXAMPLE 3. […]

[6] = treatment regimen from 6th week, 7th week
[7] = treatment regimen from 6th week, 8th week
[8] = treatment regimen from 6th week, 10th week
[9] = test group at 5th week, before administration (baseline)

C[C@@H]1C[C@H]2[C@@H]3CCC4=CC(=O)C=C[C@]4(C)[C@@]3(F)[C@@H](O)C[C@]2(C)[C@@]1(O)C(=O)CO [dexamethasone, reference compound]
arthritis index ([1]; 1 mg/kg i.p. from 6th week, 8th week): 4.57 | arthritis index ([1]; 1 mg/kg i.p. from 6th week, 9th week): 1.86 | arthritis index ([1]; 1 mg/kg i.p. from 6th week, 10th week): 1.86 | arthritis index ([2]; 5 weeks): 2.00 | arthritis index ([2]; 6 weeks): 1.50 | C.I.A. (clinical incidence of arthritis) [3, 6]: 22.2% | arthritis index [3, 6]: 2.67 | C.I.A. (clinical incidence of arthritis) [3, 7]: 33.3% | arthritis index [3, 7]: 1.67 | C.I.A. (clinical incidence of arthritis) ([3]; treatment regimen from 6th week, 9th week): 22.2% | arthritis index [3, 8]: 3.00

Histone H1
formation of pannus, erosion of cartilage or manifestation of inflammatory cells (H-E staining) [4]: not observed | week at which arthritis was first observed after the inoculation ([2]; 1 mg/kg i.p.): 7 week | arthritis induction ([2]; 1 mg/kg i.p. 2 times every week from third week, up to the 6th week): complete prevention of arthritis induction | C.I.A. (clinical incidence of arthritis) ([2]; 1 mg/kg i.p., 7th week): 60% | C.I.A. (clinical incidence of arthritis) ([2]; 1 mg/kg i.p., 8th week): 60% | C.I.A. (clinical incidence of arthritis) ([2]; 1 mg/kg i.p., 10th week): 80% | arthritis index relative to the control group ([2]; 7th week): 60% | arthritis index ([2]; mice that had arthritis, 10th week): 2.25±1.26 | edema of fore feet (pictures) ([3]; 6th week after administration of the collagen): improvement of edema was observed | arthritis index [3, 9]: 3.33±0.58 | arthritis index ([3]; treatment regimen from 6th week, 6th week): 2.67±0.58 | C.I.A. (clinical incidence of arthritis) [3, 6]: 12.5% | arthritis index [3, 6]: 1.00 | C.I.A. (clinical incidence of arthritis) [3, 7]: 14.3% | arthritis index [3, 7]: 2 | C.I.A. (clinical incidence of arthritis) [3, 8]: 14.3% | arthritis index [3, 8]: 1.00 | fraction of the induced arthritis completely cured ([3]; treatment regimen from 6th week, after the 7th week): ⅔ | C.I.A. (clinical incidence of arthritis) ([3]; treatment regimen, 1 mg/kg i.p. 2 times every week from 6th week, 6th week): 37.5% | anti-collagen antibody level (absorbance at 450 nm) ([5]; preventive regimen, diluted 500 times): 0.588±.214 | anti-collagen antibody level (absorbance at 450 nm) ([5]; treatment regimen (from 6th week)): 0.540±170

Histone H2A
arthritis index ([1]; 1 mg/kg i.p. 2 times every week from 6th week, 7th week): 4.80±0.45 | arthritis index ([1]; 1 mg/kg i.p. from 6th week, after the 9th week): 2.80 | arthritis index [1, 9]: 3.60±0.55
